Measured values as given in PubChem BioAssay (NCI).
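Assay format: 96-well plates, 48-hour exposure. Here, GI50 denotes the concentration required for 50% inhibition of growth. At the TGI there is no net growth.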

System: 786-0 renal
Experiment: NCI anticancer screen, dose series, 48 h

How did the GI50 turn out when `CCCCCc1c(C)[nH]c(/C=C2\N=C(c3ccc[nH]3)C=C2CC)c1C` was run?
Its GI50 is under 10 nM.

What about the TGI of the same molecule?
The TGI was 0.0352 µM.

Which GI50 does the source give for `CC(=O)Oc1ccccc1C(=O)N=C1[Se]CCCN1C(=O)c1ccccc1OC(C)=O` here?
The GI50 was 2140 nM.

And the TGI?
The TGI was 4.21 µM.

With `Nc1ccncc1/C=C1/C(=O)Nc2ccccc21` as the molecule, how does the GI50 read?
The GI50 was 34800 nM.

And the TGI?
The TGI was over 100 µM.

For `CC(=O)Oc1ccc(Nc2c3ccccc3nc3ccccc23)cc1`, which GI50 is on record?
The GI50 was 1890 nM.

And the TGI?
Its TGI is 6.4 µM.

System: A498 renal
Experiment: NCI anticancer screen, dose series, 48 h

With `CCCCCc1c(C)[nH]c(/C=C2\N=C(c3ccc[nH]3)C=C2CC)c1C` as the molecule, how does the GI50 read?
Its GI50 is under 22.8 nM.

What about the TGI of the same molecule?
The TGI was 267 nM.

Which results are given for `Nc1ccncc1/C=C1/C(=O)Nc2ccccc21`?
GI50: 18700 nM; TGI: 52700 nM

For `CC(=O)Oc1ccc(Nc2c3ccccc3nc3ccccc23)cc1`, which GI50 is on record?
Its GI50 is 322 nM.

And the TGI?
Its TGI is 1880 nM.

System: A549 NSCLC
Experiment: NCI anticancer screen, dose series, 48 h

Which GI50 does the source give for `CCCCCc1c(C)[nH]c(/C=C2\N=C(c3ccc[nH]3)C=C2CC)c1C` here?
Its GI50 is under 12.5 nM.

What about the TGI of the same molecule?
The TGI was 84.6 nM.

Which GI50 does the source give for `CC(=O)Oc1ccccc1C(=O)N=C1[Se]CCCN1C(=O)c1ccccc1OC(C)=O` here?
The GI50 was 1850 nM.

What about the TGI of the same molecule?
Its TGI is 3690 nM.

`Nc1ccncc1/C=C1/C(=O)Nc2ccccc21` was tested. Which GI50 did it give?
Its GI50 is 56900 nM.

What about the TGI of the same molecule?
Its TGI is over 100000 nM.

What does the source list for `CC(=O)Oc1ccc(Nc2c3ccccc3nc3ccccc23)cc1`?
GI50: 365 nM; TGI: 1870 nM

System: ACHN renal
Experiment: NCI anticancer screen, dose series, 48 h

What does the source list for `CCCCCc1c(C)[nH]c(/C=C2\N=C(c3ccc[nH]3)C=C2CC)c1C`?
GI50: 22.5 nM; TGI: 189 nM

Which results are given for `CC(=O)Oc1ccccc1C(=O)N=C1[Se]CCCN1C(=O)c1ccccc1OC(C)=O`?
GI50: 2300 nM; TGI: 4790 nM

Which GI50 does the source give for `Nc1ccncc1/C=C1/C(=O)Nc2ccccc21` here?
The GI50 was 43700 nM.

And the TGI?
Its TGI is over 100000 nM.

How did the GI50 turn out when `CC(=O)Oc1ccc(Nc2c3ccccc3nc3ccccc23)cc1` was run?
Its GI50 is 382 nM.

What about the TGI of the same molecule?
The TGI was 2020 nM.

System: BT-549 breast
Experiment: NCI anticancer screen, dose series, 48 h

How did the GI50 turn out when `CCCCCc1c(C)[nH]c(/C=C2\N=C(c3ccc[nH]3)C=C2CC)c1C` was run?
Its GI50 is 14.5 nM.

And the TGI?
Its TGI is 0.17 µM.

With `CC(=O)Oc1ccccc1C(=O)N=C1[Se]CCCN1C(=O)c1ccccc1OC(C)=O` as the molecule, how does the GI50 read?
Its GI50 is 2290 nM.

What about the TGI of the same molecule?
Its TGI is 6.66 µM.

With `Nc1ccncc1/C=C1/C(=O)Nc2ccccc21` as the molecule, how does the GI50 read?
Its GI50 is 40200 nM.

What about the TGI of the same molecule?
The TGI was over 100 µM.

Which results are given for `CC(=O)Oc1ccc(Nc2c3ccccc3nc3ccccc23)cc1`?
GI50: 2770 nM; TGI: 13.5 µM

System: CAKI-1 renal
Experiment: NCI anticancer screen, dose series, 48 h

Which GI50 does the source give for `CCCCCc1c(C)[nH]c(/C=C2\N=C(c3ccc[nH]3)C=C2CC)c1C` here?
The GI50 was 19.1 nM.

And the TGI?
Its TGI is 0.214 µM.

What does the source list for `Nc1ccncc1/C=C1/C(=O)Nc2ccccc21`?
GI50: 30200 nM; TGI: 89.7 µM

`CC(=O)Oc1ccc(Nc2c3ccccc3nc3ccccc23)cc1` was tested. Which GI50 did it give?
The GI50 was 1210 nM.

And the TGI?
Its TGI is 12.7 µM.

System: CCRF-CEM leukemia
Experiment: NCI anticancer screen, dose series, 48 h

How did the GI50 turn out when `Nc1ccncc1/C=C1/C(=O)Nc2ccccc21` was run?
The GI50 was 68.3 µM.

And the TGI?
The TGI was over 100 µM.

System: COLO 205 colon
Experiment: NCI anticancer screen, dose series, 48 h

With `CCCCCc1c(C)[nH]c(/C=C2\N=C(c3ccc[nH]3)C=C2CC)c1C` as the molecule, how does the GI50 read?
The GI50 was 18.8 nM.

And the TGI?
Its TGI is 134 nM.

What does the source list for `CC(=O)Oc1ccccc1C(=O)N=C1[Se]CCCN1C(=O)c1ccccc1OC(C)=O`?
GI50: 3080 nM; TGI: 10100 nM

Which GI50 does the source give for `Nc1ccncc1/C=C1/C(=O)Nc2ccccc21` here?
Its GI50 is 19800 nM.

What about the TGI of the same molecule?
Its TGI is over 100000 nM.

Which GI50 does the source give for `CC(=O)Oc1ccc(Nc2c3ccccc3nc3ccccc23)cc1` here?
Its GI50 is 861 nM.

What about the TGI of the same molecule?
Its TGI is 2330 nM.

System: DU-145 prostate
Experiment: NCI anticancer screen, dose series, 48 h

`CCCCCc1c(C)[nH]c(/C=C2\N=C(c3ccc[nH]3)C=C2CC)c1C` was tested. Which GI50 did it give?
Its GI50 is under 10 nM.

And the TGI?
Its TGI is 1190 nM.

What does the source list for `CC(=O)Oc1ccccc1C(=O)N=C1[Se]CCCN1C(=O)c1ccccc1OC(C)=O`?
GI50: 1820 nM; TGI: 3260 nM

With `Nc1ccncc1/C=C1/C(=O)Nc2ccccc21` as the molecule, how does the GI50 read?
The GI50 was 44900 nM.

What about the TGI of the same molecule?
Its TGI is over 100000 nM.

How did the GI50 turn out when `CC(=O)Oc1ccc(Nc2c3ccccc3nc3ccccc23)cc1` was run?
The GI50 was 536 nM.

And the TGI?
The TGI was 3000 nM.

System: EKVX NSCLC
Experiment: NCI anticancer screen, dose series, 48 h

What does the source list for `CCCCCc1c(C)[nH]c(/C=C2\N=C(c3ccc[nH]3)C=C2CC)c1C`?
GI50: 0.0216 µM; TGI: 0.364 µM

Which results are given for `Nc1ccncc1/C=C1/C(=O)Nc2ccccc21`?
GI50: 47.2 µM; TGI: > 100 µM

How did the GI50 turn out when `CC(=O)Oc1ccc(Nc2c3ccccc3nc3ccccc23)cc1` was run?
The GI50 was 3.05 µM.

And the TGI?
Its TGI is 25.3 µM.

System: HCC-2998 colon
Experiment: NCI anticancer screen, dose series, 48 h

Which GI50 does the source give for `CCCCCc1c(C)[nH]c(/C=C2\N=C(c3ccc[nH]3)C=C2CC)c1C` here?
Its GI50 is under 0.01 µM.

What about the TGI of the same molecule?
The TGI was 0.174 µM.

What does the source list for `CC(=O)Oc1ccccc1C(=O)N=C1[Se]CCCN1C(=O)c1ccccc1OC(C)=O`?
GI50: 3.42 µM; TGI: 15.6 µM

Which results are given for `Nc1ccncc1/C=C1/C(=O)Nc2ccccc21`?
GI50: 25.3 µM; TGI: 59.9 µM

With `CC(=O)Oc1ccc(Nc2c3ccccc3nc3ccccc23)cc1` as the molecule, how does the GI50 read?
Its GI50 is 1.97 µM.

What about the TGI of the same molecule?
Its TGI is 14.3 µM.

System: HCT-116 colon
Experiment: NCI anticancer screen, dose series, 48 h

What does the source list for `CCCCCc1c(C)[nH]c(/C=C2\N=C(c3ccc[nH]3)C=C2CC)c1C`?
GI50: < 10 nM; TGI: 0.0255 µM

Which results are given for `CC(=O)Oc1ccccc1C(=O)N=C1[Se]CCCN1C(=O)c1ccccc1OC(C)=O`?
GI50: 2100 nM; TGI: 5.95 µM

Which results are given for `Nc1ccncc1/C=C1/C(=O)Nc2ccccc21`?
GI50: 43900 nM; TGI: > 100 µM

For `CC(=O)Oc1ccc(Nc2c3ccccc3nc3ccccc23)cc1`, which GI50 is on record?
Its GI50 is 613 nM.

What about the TGI of the same molecule?
Its TGI is 4.11 µM.

System: HCT-15 colon
Experiment: NCI anticancer screen, dose series, 48 h

For `CCCCCc1c(C)[nH]c(/C=C2\N=C(c3ccc[nH]3)C=C2CC)c1C`, which GI50 is on record?
The GI50 was under 10 nM.

What about the TGI of the same molecule?
Its TGI is 0.125 µM.

With `CC(=O)Oc1ccccc1C(=O)N=C1[Se]CCCN1C(=O)c1ccccc1OC(C)=O` as the molecule, how does the GI50 read?
Its GI50 is 2530 nM.

And the TGI?
Its TGI is 7.28 µM.

What does the source list for `Nc1ccncc1/C=C1/C(=O)Nc2ccccc21`?
GI50: 36500 nM; TGI: > 100 µM

How did the GI50 turn out when `CC(=O)Oc1ccc(Nc2c3ccccc3nc3ccccc23)cc1` was run?
Its GI50 is 1130 nM.

And the TGI?
The TGI was 3.4 µM.

System: HL-60(TB) leukemia
Experiment: NCI anticancer screen, dose series, 48 h

How did the GI50 turn out when `CCCCCc1c(C)[nH]c(/C=C2\N=C(c3ccc[nH]3)C=C2CC)c1C` was run?
Its GI50 is 15.1 nM.

What about the TGI of the same molecule?
The TGI was 0.0814 µM.

How did the GI50 turn out when `CC(=O)Oc1ccccc1C(=O)N=C1[Se]CCCN1C(=O)c1ccccc1OC(C)=O` was run?
Its GI50 is 2140 nM.

What about the TGI of the same molecule?
Its TGI is 5.63 µM.

What does the source list for `Nc1ccncc1/C=C1/C(=O)Nc2ccccc21`?
GI50: 14500 nM; TGI: 39.8 µM

Which results are given for `CC(=O)Oc1ccc(Nc2c3ccccc3nc3ccccc23)cc1`?
GI50: 705 nM; TGI: 6.14 µM

System: HOP-62 NSCLC
Experiment: NCI anticancer screen, dose series, 48 h

How did the GI50 turn out when `CCCCCc1c(C)[nH]c(/C=C2\N=C(c3ccc[nH]3)C=C2CC)c1C` was run?
Its GI50 is 12.8 nM.

What about the TGI of the same molecule?
The TGI was 79.5 nM.

Which GI50 does the source give for `CC(=O)Oc1ccccc1C(=O)N=C1[Se]CCCN1C(=O)c1ccccc1OC(C)=O` here?
Its GI50 is 1610 nM.

What about the TGI of the same molecule?
Its TGI is 3010 nM.
